≈ marks a conversion by molar mass, not a printed value.
Columns and labels:
[1] = Levels of compound 9 in rat tibiae (microbiological assay); type: in vivo; conditions: for Amount of compound 9 in the uninfected tibiae: dose equivalent to 10 mg/kg of 9 (11: 15.5 mg/kg), three days prior to infection
Experimental: The experimentally obtained intact uninfected (contra lateral) tibia of the treated and infected rats described above was ground to a powder which was suspended in PBS+2% DMSO. The mixture was centrifuged for 2 min at 13,000 rpm. The amount of compound 9 released in the supernatant was determined by microbiological assay as described previously (Example 3).

[2] = system: S. aureus ATCC 13709 Novobiocin resistant mutant (bone infection); assay: Prophylactic efficacy in rat model of S. aureus bone infection; type: in vivo; conditions: for Prophylactic effect (in words): rat bone infection, doses and times of Table 3, t-test p<0.05; for Measured bacterial titer: rat tibia 24 h postinfection
[3] = system: S. aureus ATCC 13709 Novobiocin and Rifampicin resistant variant; assay: microbe, parasite or virus in culture; type: cell-based; conditions: for Minimum inhibitory concentration, S. aureus ATCC 13709 variant: Novobiocin and Rifampicin resistant variant
Procedure, shortened: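 Two-fold serial dilutions in DMSO tested in cation-adjusted Mueller Hinton broth per NCCLS M26-A, 5×10^5 c.f.u./mL inoculum, 1.25% final DMSO, duplicates.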

[4] = single dose 11 mg/kg parent drug equivalent, 3 days prior to infection

3-(((4-(2-(3-((bisphosphonomethyl)carbamoyl)propanoyloxy)ethyl)-1-piperazinyl)imino)methyl)rifamycin [Compound 11]
Level of compound 9 in uninfected tibia ([1]; 11 at 32 mg/kg once weekly for 4 weeks after the infection): 1.28±0.18 μg/g of bone | Amount of compound 9 in the uninfected tibiae [1]: 0.88 ± 0.11 µg/g | Prophylactic effect (in words) [2]: statistically significant | Measured bacterial titer [2, 4]: 3.01 ± 0.47 Log CFU/g of bone

CO[C@H]1/C=C/O[C@@]2(C)Oc3c(C)c(O)c4c(O)c(c(/C=N/N5CCN(CCO)CC5)c(O)c4c3C2=O)NC(=O)/C(C)=C\C=C\[C@H](C)[C@H](O)[C@@H](C)[C@@H](O)[C@@H](C)[C@H](OC(C)=O)[C@@H]1C [Compound 9, 3-(((4-(2-hydroxyethyl)-1-piperazinyl)imino)methyl)rifamycin]
Amount of compound 9 in the uninfected tibiae [1]: < 0.17 µg/g | Measured bacterial titer [2, 4]: 6.38 ± 0.90 Log CFU/g of bone

CO[C@H]1/C=C/O[C@@]2(C)Oc3c(C)c(O)c4c(=O)c(c5oc6cc(N7CCN(CCOC(=O)CCC(=O)NC(P(=O)(O)O)P(=O)(O)O)CC7)cc(O)c6nc-5c4c3C2=O)NC(=O)/C(C)=C\C=C\[C@H](C)[C@H](O)[C@@H](C)[C@@H](O)[C@@H](C)[C@H](OC(C)=O)[C@@H]1C.N.N [Compound 62]
Activity against the Rifampicin resistant variant of S. aureus ATCC13709 (in words) [3]: complete lack of activity | Minimum inhibitory concentration, S. aureus ATCC 13709 variant [3]: >128 µg/mL | Prophylactic effect (in words) [2]: statistically significant | Measured bacterial titer ([2]; single dose 20 mg/kg parent drug equivalent, 2 days prior to infection): 1.98 ± 0.06 Log CFU/g of bone

CO[C@H]1/C=C/O[C@@]2(C)Oc3c(C)c(O)c4c(=O)c(c5oc6cc(N7CCN(CCC(=O)c8ccc(OCCCC(P(=O)(O)O)P(=O)(O)O)cc8)CC7)cc(O)c6nc-5c4c3C2=O)NC(=O)/C(C)=C\C=C\[C@H](C)[C@H](O)[C@@H](C)[C@@H](O)[C@@H](C)[C@H](OC(C)=O)[C@@H]1C [Compound 71]
Activity against the Rifampicin resistant variant of S. aureus ATCC13709 (in words) [3]: complete lack of activity | Minimum inhibitory concentration, S. aureus ATCC 13709 variant [3]: 128 µg/mL (≈ 102 µM) | Prophylactic effect (in words) [2]: statistically significant | Measured bacterial titer ([2]; single dose 20 mg/kg parent drug equivalent, 3 days prior to infection): 2.77 ± 1.00 Log CFU/g of bone

CO[C@H]1/C=C/O[C@@]2(C)Oc3c(C)c(O)c4c(=O)c(c5oc6cc(N7CCN(CC(C)C)CC7)cc(O)c6nc-5c4c3C2=O)NC(=O)/C(C)=C\C=C\[C@H](C)[C@H](OC(=O)CCCOC(=O)CCC(=O)NC(P(=O)(O)O)P(=O)(O)O)[C@@H](C)[C@@H](O)[C@@H](C)[C@H](OC(C)=O)[C@@H]1C [Compound 81, 21-O-(4-((3-(bisphosphonomethyl)carbamoyl)propanoyloxy)butanoyl)-1′,4-Didehydro-1-deoxy-1,4-dihydro-3′-hydroxy-5′-[4-(2-methylpropyl)-1-piperazinyl]-1-oxorifamycin VIII]
Activity against the Rifampicin resistant variant of S. aureus ATCC13709 (in words) [3]: complete lack of activity | Minimum inhibitory concentration, S. aureus ATCC 13709 variant [3]: >128 µg/mL | Prophylactic effect (in words) [2]: statistically significant | Measured bacterial titer ([2]; single dose 10 mg/kg parent drug equivalent, 3 days prior to infection): 2.05 ± 0.06 Log CFU/g of bone

Reference: patent US8404664B2, “Phosphonated Rifamycins and uses thereof for the prevention and treatment of bone and joint infections” (Targanta Therapeutics, Inc., priority 2005, dated 2013)
